Tested on: oral inflammatory lesions in hamster cheek pouches
Assay: Treatment of acetic acid-induced oral inflammatory lesions in hamster cheek pouches
Format: in vivo, Golden Syrian hamsters
Conditions: mean +/- SEM
Protocol: FIG. 10 is a schematic of the procedure used to test delivery of budesonide to treat or prevent ulcers induced by acetic acid in hamster cheek pouches. 50% acetic acid was administered for 60 seconds. Male Golden Syrian hamsters weighing 100-120 g (Charles River Laboratories, Wilmington, Mass.) were used as received and randomly assigned to experimental groups by the researchers performing the work. To limit pain and distress, all animals received buprenorphine sustained release (SR) (subcutaneous administration, 1 mg/kg body weight, compounded by ZooPharm) just prior to the application of acetic acid for the induction of the oral lesion on day 0. All manipulations occurred with the animal under general anesthesia by inhaled isoflurane. Experimental treatment groups included topical application of budesonide solution with (Budesonide+US) and without (Budesonide) ultrasound. A positive disease control receiving no treatment was also included (Disease). Treatment was administered on day 0 immediately prior to lesion induction using acetic acid. While under general anesthesia, the left cheek pouch was everted, the device was placed on the buccal surface, and the fluid chamber filled with solubilized budesonide solution (0.1%, ˜1 mL). For the Budesonide+US treatment group, ultrasound was simultaneously applied for 3 seconds at an intensity of 5 W/cm2 and a 100% duty cycle. In experimental groups receiving budesonide only (Budesonide), drug was applied as described above without turning the ultrasound on. Immediately following budesonide treatment, oral lesions were induced by topical application of acetic acid (50% solution) as described in previous studies. Briefly, acetic acid was applied to the buccal surface using a liquid holder with a circular area of 5 mm2 for 60 seconds. After acetic acid application, the hamsters were placed back into their cages to recover. On every subsequent day, the cheek pouches were everted to reveal the lesion and an image captured to quantify lesion size. Treatments were then applied as described above. Lesion size was measured using ImageJ (National Institutes of Health, Bethesda, Md.). All data analysis was performed using GraphPad Prism software (GraphPad Software, Inc., La Jolla, Calif., USA). Two-group comparisons were made using Student's unpaired t-test using Welch's correction. Multiple comparisons were made using one-way ANOVA followed by Tukey's post-test. For all comparisons, p<0.05 was considered statistically significant. Data are reported as mean±standard error of the mean (SEM) except for temperature measurements that are reported as mean±standard deviation (SD).

In the case of CCCC1O[C@@H]2C[C@H]3[C@@H]4CCC5=CC(=O)C=C[C@]5(C)[C@H]4[C@@H](O)C[C@]3(C)[C@]2(C(=O)CO)O1 (stereo partly shown) [Budesonide], the oral lesion size (24 hours post-acetic acid induced injury, budesonide solution 0.1% with 40 kHz ultrasound 3 seconds, 5 W/cm2) is reported as 15.7+/−1.3 mm2, the oral lesion size (24 hours post-acetic acid induced injury, topical budesonide solution 0.1% without ultrasound) is reported as 20.3+/−1.1 mm2 and the oral lesion size (48 hours after acetic acid-induced injury, budesonide with ultrasound) is reported as 18.71+/−2.3 mm2. The oral lesion size (48 hours after acetic acid-induced injury, topical budesonide without ultrasound) was 25.5+/−1.6 mm2.

Source: patent US20210252265A1, “DEVICES AND METHODS FOR ULTRASONIC DELIVERY OF AN AGENT WITHIN AN ORAL CAVITY” (Suono Bio, Inc., priority 2018, published 2021)
